Assay results as given in US20110230472A1, “RING-FUSED AZOLE DERIVATIVE HAVING PI3K-INHIBITING ACTIVITY” (Shionogi & Co., Ltd., priority 2008, published 2011).

Key:
[1] = molecular target: PI-3 kinase γ (Homo sapiens, UniProt P48736); assay: PI3Kγ inhibitory activity, PI3-kinase HTRF assay (inhibition ratio); assay type: biochemical; settings: 0.5 h; for inhibition at 50 µM: compound at 50 μM
Summary of the method: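 PI3Kγ preincubated 10 min with compound and PIP2 substrate (MgCl2, DTT), then ATP added for 30 min at room temperature. PIP3 detected by HTRF (665/620 nm ratio) after 18 h. Inhibition ratio at 50 or 10 μmol/L, normalised to no-compound and no-enzyme controls.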

[2] = tested on: AKT phosphorylation in human monocyte-like cell line THP-1; assay: AKT phosphorylation inhibitory activity in MCP-1-stimulated THP-1 cells (ELISA); assay type: cell-based; settings: 1 μmol/L solution of each compound, MCP-1 stimulation, read-out: AKT phosphorylation inhibition ratio
Description: (1) The AKT phosphorylation inhibitory activity of a compound was evaluated according to the following procedure. (2) Human monocyte-like cell line THP-1 was washed with RPMI-1640 media, incubated in the presence of 5% CO2 at 37° C. for 3 hours, washed with Hank's balanced salt solution (HBSS), adjusted to a cell concentration of 6.6×10^6/mL, and then used in an experiment. (3) 30 μL of the cell suspension and 60 μL of each compound solution containing 0.2% DMSO/HBSS were mixed and then preincubated at 37° C. for 5 minutes. 30 μL of HBSS containing 4 μg/mL of MCP-1 was added thereto and then incubated for 30 seconds at 37° C. (4) 30 μl of a cell lysate (20 mmol/L Tris-HCl (pH 7.5), 150 mmol/L NaCl, 1 mmol/L Na2EDTA, 1 mmol/L EGTA, 1% Triton, 2.5 mmol/L sodium pyrophosphate, 1 mmol/L β-glycerophosphate, 1 mmol/L Na3VO4, 1 μg/ml leupeptin, 50 nmol/L APMSF) was added thereto to lyse cells. (5) The amount of AKT phosphorylation in the cell lysate was measured by ELISA method. (6) Anti-phospho-Akt (Ser473) antibodies (clone 193H12, derived from a rabbit) were immobilized onto the solid phase of a micro well plate. 100 μL of the prepared cell lysate was added to the micro well plate, incubated for 2 hours at 37° C., and then washed four times with Phosphate Buffered Saline containing 0.05% Tween-20. (7) An anti-AKT1 antibody (clone 2H10, derived from a mouse) was added thereto, incubated for 1 hour at 37° C., washed similarly, and then reacted with an HRP-labeled anti-mouse IgG antibody. (8) After incubating at 37° C. for 30 minutes and then washing similarly, 100 μL of TMB (3,3′,5,5″-tetramethylbenzidine) was added thereto, followed by reacting at room temperature for 30 minutes. (9) 100 μL of 1 mol/L sulfuric acid was added to quench the color reaction and then the absorbance at 450 nm was measured. (10) A series of diluted cell lysates of a positive control (a sample in the absence of a compound) were used to prepare a calibration curve, the amount of AKT phosphorylation in a sample in the absence of MCP-1 was defined as 0% activity to calculate an inhibition ratio. The measurement was performed for a 1 μmol/L solution of each compound.

[3] = Solubility test; assay type: physicochemical; settings: kinetic from dmso stock; artificial intestinal juice pH 6.8, 1% DMSO, 25° C. for 16 hours
Description: The solubility of a compound was determined under a condition in which 1% DMSO was added. 10 mmol/L compound solution was prepared using DMSO, and then 6 μL of the compound solution was added to 594 μL of artificial intestinal juice in pH 6.8 (to 250 mL of 0.2 mol/L potassium dihydrogen phosphate reagent solution was added 118 mL of 0.2 mol/L NaOH reagent solution and water to provide a final volume of 1000 mL). After standing at 25° C. for 16 hours, the mixed solution was filtered with suction. The filtrate was diluted twice with methanol/water (1/1), and then a concentration in the filtration was measured with HPLC or LC/MS/MS by the absolute calibration method.

[4] = molecular target: T1, CYP1A2 (Homo sapiens, UniProt P05177); assay: CYP inhibition test, pooled human liver microsome, CYP1A2; assay type: in vitro ADME; settings: O-de-ethylation of 7-ethoxyresorufin
T1 construct: enzyme: pooled human liver microsome 0.2 mg protein/mL; from tissue; host or cells: pooled human liver microsome
T1 sequence (P05177 1-516): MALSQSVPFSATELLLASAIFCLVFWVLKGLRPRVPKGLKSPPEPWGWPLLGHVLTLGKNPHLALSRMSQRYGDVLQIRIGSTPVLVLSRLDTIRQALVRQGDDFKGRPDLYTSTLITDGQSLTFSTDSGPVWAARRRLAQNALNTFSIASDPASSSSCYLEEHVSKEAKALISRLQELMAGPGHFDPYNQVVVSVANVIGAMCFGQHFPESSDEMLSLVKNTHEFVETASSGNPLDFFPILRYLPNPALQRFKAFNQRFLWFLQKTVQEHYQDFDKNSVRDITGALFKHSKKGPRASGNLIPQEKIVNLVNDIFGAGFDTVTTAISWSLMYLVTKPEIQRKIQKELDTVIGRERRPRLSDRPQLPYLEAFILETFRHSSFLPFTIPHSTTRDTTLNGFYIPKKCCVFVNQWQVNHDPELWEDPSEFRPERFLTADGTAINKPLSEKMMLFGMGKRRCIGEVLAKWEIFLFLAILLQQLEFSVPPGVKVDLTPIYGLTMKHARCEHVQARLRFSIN
From the text: (§1) O-de-ethylation of 7-ethoxyresorufin (CYP1A2), methyl-hydroxylation of tolbutamide (CYP2C9), 4′-hydroxylation of mephenyloin (CYP2C19), O-demethylation of dextromethorphan (CYP2D6), and hydroxylation of terfenadine (CYP3A4), which are typical substrate for metabolic reactions of human main CYP5 molecular species (CYP1A2, 2C9, 2C19, 2D6, and 3A4), were adopted as indexes.
(§2) The reaction conditions are as follows: substrate: 0.5 μmol/L of ethoxyresorufin (CYP1A2), 100 μmol/L of tolbutamide (CYP2C9), […] of S-mephenyloin (CYP2C19), 5 μmol/L of dextromethorphan (CYP2D6), and 1 μmol/L of terfenadine (CYP3A4); reaction time; 15 minutes; reaction temperature: 37° C.; enzyme: pooled human liver microsome 0.2 mg protein/mL; test drug concentration: 1, 5, 10, and 20 μmol/L (4 points).
(§3) In a 96-well plate, as a reaction solution, five kinds of substrates, a human liver microsome, and a test drug were added to 50 mmol/L Hepes buffer solution in the aforementioned ratio. A coenzyme NADPH was added to start a metabolic reaction, which is an index. After reacting at 37° C. for 15 minutes, a solution of methanol/acetonitrile (1/1 (v/v)) was added to quench the reaction. After centrifugation at 3000 rpm for 15 minutes, resorufin (CYP1A2 metabolite) in the supernatant was quantitated with a fluorescence multilabel counter, and hydroxylated tolbutamide (CYP2C9 metabolite), 4′-hydroxylated mephenyloin (CYP2C19 metabolite), […], terfenadine in alcohol form (CYP3A4 metabolite) were quantitated with LC/MS/MS.
(§4) The case wherein only DMSO (a solvent which dissolved a drug) was added to a reaction system was defined as a control (100%). When a test drug solution was added, the remaining activity (%) at each concentration was calculated, and then IC50 was calculated with a concentration and an inhibition ratio by an inverse estimation using a logistic model.

[5] = molecular target: T2, CYP2C9 (Homo sapiens, UniProt P11712); assay: CYP inhibition test, pooled human liver microsome, CYP2C9; assay type: in vitro ADME; settings: methyl-hydroxylation of tolbutamide
T2 construct: enzyme: pooled human liver microsome 0.2 mg protein/mL; from tissue; host or cells: pooled human liver microsome
T2 sequence (P11712 whole entry): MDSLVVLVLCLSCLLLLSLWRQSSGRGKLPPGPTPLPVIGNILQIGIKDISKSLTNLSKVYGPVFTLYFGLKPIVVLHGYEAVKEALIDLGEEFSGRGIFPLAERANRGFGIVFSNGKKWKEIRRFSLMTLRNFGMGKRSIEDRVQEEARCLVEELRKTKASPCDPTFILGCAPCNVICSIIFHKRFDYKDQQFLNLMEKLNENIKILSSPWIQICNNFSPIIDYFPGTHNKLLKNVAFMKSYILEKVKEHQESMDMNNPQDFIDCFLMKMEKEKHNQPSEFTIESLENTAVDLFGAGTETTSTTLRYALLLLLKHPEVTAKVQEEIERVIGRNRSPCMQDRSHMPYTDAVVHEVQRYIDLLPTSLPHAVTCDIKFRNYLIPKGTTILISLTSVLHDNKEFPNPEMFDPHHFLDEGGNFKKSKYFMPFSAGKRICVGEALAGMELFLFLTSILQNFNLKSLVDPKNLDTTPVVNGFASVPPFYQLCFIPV
From the text: as §1, §2, §3, §4

[6] = molecular target: T3, CYP2C19 (Homo sapiens, UniProt P33261); assay: CYP inhibition test, pooled human liver microsome, CYP2C19; assay type: in vitro ADME; settings: 4′-hydroxylation of mephenyloin
T3 construct: enzyme: pooled human liver microsome 0.2 mg protein/mL; from tissue; host or cells: pooled human liver microsome
T3 sequence (P33261 whole entry): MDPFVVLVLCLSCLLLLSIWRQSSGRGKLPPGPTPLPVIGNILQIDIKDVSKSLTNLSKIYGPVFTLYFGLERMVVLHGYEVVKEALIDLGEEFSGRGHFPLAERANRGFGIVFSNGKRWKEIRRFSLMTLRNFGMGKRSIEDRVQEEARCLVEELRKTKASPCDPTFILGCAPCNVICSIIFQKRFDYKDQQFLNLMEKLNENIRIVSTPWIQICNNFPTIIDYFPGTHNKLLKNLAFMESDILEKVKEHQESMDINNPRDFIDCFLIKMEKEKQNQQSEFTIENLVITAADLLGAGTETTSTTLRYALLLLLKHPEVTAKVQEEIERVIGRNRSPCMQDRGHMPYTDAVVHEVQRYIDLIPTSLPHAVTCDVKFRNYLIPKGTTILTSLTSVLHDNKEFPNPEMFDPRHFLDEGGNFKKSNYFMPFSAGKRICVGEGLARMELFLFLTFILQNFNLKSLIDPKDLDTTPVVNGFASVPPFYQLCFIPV
From the text: as §1, §2, §3, §4

[7] = molecular target: T4, CYP2D6 (Homo sapiens, UniProt P10635); assay: CYP inhibition test, pooled human liver microsome, CYP2D6; assay type: in vitro ADME; settings: O-demethylation of dextromethorphan
T4 construct: enzyme: pooled human liver microsome 0.2 mg protein/mL; from tissue; host or cells: pooled human liver microsome
T4 sequence (P10635 whole entry): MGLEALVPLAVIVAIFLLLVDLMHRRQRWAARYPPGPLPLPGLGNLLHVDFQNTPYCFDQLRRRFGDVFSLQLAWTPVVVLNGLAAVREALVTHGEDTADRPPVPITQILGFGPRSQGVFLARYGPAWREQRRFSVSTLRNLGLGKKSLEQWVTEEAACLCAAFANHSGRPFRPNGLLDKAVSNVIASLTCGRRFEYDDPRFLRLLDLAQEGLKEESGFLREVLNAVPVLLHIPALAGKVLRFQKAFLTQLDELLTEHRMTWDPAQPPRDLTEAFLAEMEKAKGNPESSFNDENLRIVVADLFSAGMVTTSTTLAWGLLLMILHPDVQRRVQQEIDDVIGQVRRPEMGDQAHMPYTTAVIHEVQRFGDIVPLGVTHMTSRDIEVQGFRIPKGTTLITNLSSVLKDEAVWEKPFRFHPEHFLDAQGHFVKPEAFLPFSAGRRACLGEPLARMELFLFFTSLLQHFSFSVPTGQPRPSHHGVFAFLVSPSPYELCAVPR
From the text: as §1, §2, §3, §4

[8] = molecular target: T5, CYP3A4 (Homo sapiens, UniProt P08684); assay: CYP inhibition test, pooled human liver microsome, CYP3A4; assay type: in vitro ADME; settings: hydroxylation of terfenadine
T5 construct: enzyme: pooled human liver microsome 0.2 mg protein/mL; from tissue; host or cells: pooled human liver microsome
T5 sequence (P08684 whole entry): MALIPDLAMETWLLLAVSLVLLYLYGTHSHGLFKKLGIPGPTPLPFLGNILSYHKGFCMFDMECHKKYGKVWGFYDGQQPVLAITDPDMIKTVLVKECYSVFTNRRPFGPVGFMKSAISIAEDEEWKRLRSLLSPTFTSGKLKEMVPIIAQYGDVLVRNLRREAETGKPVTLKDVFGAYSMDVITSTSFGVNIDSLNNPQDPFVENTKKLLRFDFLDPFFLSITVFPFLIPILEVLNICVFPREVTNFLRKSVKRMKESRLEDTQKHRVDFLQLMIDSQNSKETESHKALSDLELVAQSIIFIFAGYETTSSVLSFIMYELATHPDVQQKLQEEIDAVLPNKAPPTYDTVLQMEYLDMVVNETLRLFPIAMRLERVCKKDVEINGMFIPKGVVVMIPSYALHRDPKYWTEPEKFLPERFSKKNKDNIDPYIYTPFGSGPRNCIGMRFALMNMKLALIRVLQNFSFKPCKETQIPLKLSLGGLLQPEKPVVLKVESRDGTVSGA
From the text: as §1, §2, §3, §4

[9] = Metabolic stability test; assay type: in vitro ADME; settings: human liver microsome 0.5 mg protein/mL, 1 mmol/L NADPH, 37° C.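 Note: 100% equals the compound amount at 0 min reaction.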
Description: After a subject compound was reacted for a certain time using a pooled human liver microsome commercially available, a reacted sample and an unreacted sample are compared to calculate a survival ratio, and then the degree of metabolism in the liver was evaluated.
0.2 mL of a buffer solution (50 mmol/L of Tris-HCl in pH 7.4, 150 mmol/L of potassium chloride, and 10 mmol/L of magnesium chloride) containing a human liver microsome of 0.5 mg protein/mL was reacted in the presence of 1 mmol/L NADPH at 37° C. for 0 or 30 minutes (oxidative reaction). After reacting, 50 μL of the reaction solution was added to 100 μL of a solution of methanol/acetonitrile (1/1 (v/v)), mixed, and then centrifuged at 3000 rpm for 15 minutes. The test compound in the supernatant was quantitated with LC/MS/MS. The amount of the compound at a reaction time of 0 minute was defined as 100% and, based on that, the percentage of the test compound remained after reacting for 30 minutes was calculated.

Sequence of PI-3 kinase γ (P48736 whole entry): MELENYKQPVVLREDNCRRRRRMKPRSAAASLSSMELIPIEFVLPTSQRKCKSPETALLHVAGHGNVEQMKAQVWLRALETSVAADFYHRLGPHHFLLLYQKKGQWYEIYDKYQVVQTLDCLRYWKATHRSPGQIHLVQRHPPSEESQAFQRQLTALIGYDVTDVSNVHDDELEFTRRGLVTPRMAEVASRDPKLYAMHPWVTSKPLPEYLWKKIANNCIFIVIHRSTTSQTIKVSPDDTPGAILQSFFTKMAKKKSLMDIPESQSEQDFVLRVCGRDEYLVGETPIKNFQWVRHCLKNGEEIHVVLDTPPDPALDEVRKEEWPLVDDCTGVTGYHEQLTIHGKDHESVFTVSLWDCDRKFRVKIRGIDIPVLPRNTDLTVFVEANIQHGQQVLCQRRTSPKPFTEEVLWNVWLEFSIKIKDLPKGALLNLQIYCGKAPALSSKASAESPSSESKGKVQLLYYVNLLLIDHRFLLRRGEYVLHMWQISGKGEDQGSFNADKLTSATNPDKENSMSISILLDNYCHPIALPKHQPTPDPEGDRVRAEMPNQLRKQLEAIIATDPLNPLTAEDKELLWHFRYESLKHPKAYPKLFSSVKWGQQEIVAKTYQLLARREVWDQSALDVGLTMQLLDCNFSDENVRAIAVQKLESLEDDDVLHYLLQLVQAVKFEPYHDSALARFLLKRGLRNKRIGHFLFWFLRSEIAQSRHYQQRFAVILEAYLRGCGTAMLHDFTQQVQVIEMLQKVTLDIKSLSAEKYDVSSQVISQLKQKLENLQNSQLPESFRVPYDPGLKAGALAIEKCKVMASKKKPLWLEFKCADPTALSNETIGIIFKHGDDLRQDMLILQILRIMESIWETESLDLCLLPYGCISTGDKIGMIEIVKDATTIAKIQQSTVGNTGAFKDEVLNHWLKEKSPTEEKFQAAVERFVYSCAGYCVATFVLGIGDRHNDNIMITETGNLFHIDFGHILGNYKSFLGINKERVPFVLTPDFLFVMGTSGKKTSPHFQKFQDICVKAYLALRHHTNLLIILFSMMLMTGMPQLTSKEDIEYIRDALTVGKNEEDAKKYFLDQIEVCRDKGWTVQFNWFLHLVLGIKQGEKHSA

Compound | inhibition at 50 µM ([1]; PI3Kγ) [%] | inhibition [2] [%] | solubility at 16 h [3] [µM] | IC50 [4] [µM] | IC50 [5] [µM] | IC50 [6] [µM] | IC50 [7] [µM] | IC50 [8] [µM] | percentage of the test compound remained after reacting for 30 minutes [9] [%] | inhibition at 10 µM ([1]; PI3Kγ, compound at 10 μM) [%] | inhibition at 10 µM ([1]; compound at 10 μmol/L) [%]
CNC(=O)Nc1cc2n(n1)CCN2c1ccc2ncccc2c1 [Compound I-177] | ≥ 95 | > 99.5 | > 50 |  |  |  |  |  |  |  | 
CNC(=O)Nc1cc2n(n1)CCN2c1cc(Br)cc(C(=O)Nc2cccc(C(=O)O)c2)c1 [Compound I-187] | 94 |  | > 50 | > 20 | > 20 | > 20 | > 20 | > 20 | 98.9 |  | 
CNC(=O)Nc1cc2n(n1)CCN2c1ccc(C(=O)O)s1 [Compound I-217] | ≥ 95 |  | > 50 | > 20 | > 20 | > 20 | > 20 | > 20 |  |  | 
CN(C)C(=O)CCC(=O)Nc1cc2n(n1)CCN2c1cccc(Cl)c1 [Compound I-234] | ≥ 95 |  |  | > 20 | > 20 | > 20 | > 20 | > 20 | 98.3 |  | 
COc1cc(N2CCc3nc(NC(=O)NCCC(=O)N4CCC[C@H]4C(=O)O)sc3C2)nc(OC)n1 [Compound I-276] |  |  | > 50 | > 20 | > 20 | > 20 | > 20 | > 20 | 90.1 | ≥ 95 | 
COc1nc(OC)nc(N2CCc3nc(NC(C)=O)sc3C2)n1 [Compound I-330] |  |  | > 50 | > 20 | > 20 | > 20 | > 20 | > 20 | 99 |  | 83
CN1CCc2cc(N3CCn4nc(NC(=O)c5cccs5)cc43)ccc2C1=O [Compound I-331] |  | 93 |  |  |  |  |  |  |  |  | 84
CC(=O)Nc1cc2n(n1)CCN2c1ccc2c(c1)CCC(=O)N2C [Compound I-340] |  |  | > 50 | > 20 | > 20 | > 20 | > 20 | > 20 | 98.3 |  | ≥ 95
CN1CCc2cc(N3CCn4nc(NC(=O)CC5CCNC5)cc43)ccc2C1=O.Cl.Cl (centres unmarked) [Compound I-356] |  |  | > 50 | > 20 | > 20 | > 20 | > 20 | > 20 |  |  | ≥ 95
CN1CCc2cc(N3CCn4nc(NC(=O)c5cc(O)no5)cc43)ccc2C1=O [Compound I-397] |  |  | > 50 | > 20 | > 20 | > 20 | > 20 | > 20 | 96.7 |  | ≥ 95
CC(C)NC(=O)c1csc(C(=O)Nc2cc3n(n2)CCN3c2ccc3c(c2)CCN(C)C3=O)c1 [Compound I-402] |  |  |  | > 20 | > 20 | > 20 | > 20 | > 20 |  |  | 91
CC(C)NC(=O)c1ccc(C(=O)Nc2cc3n(n2)CCN3c2ccc3c(c2)CCN(C)C3=O)s1 [Compound I-407] |  |  |  | > 20 | > 20 | > 20 | > 20 | > 20 | 92.9 |  | ≥ 95
CN1CCc2cc(N3CCn4nc(NC(=O)c5ccc(C(=O)NCC#N)s5)cc43)ccc2C1=O [Compound I-409] |  |  |  | > 20 | > 20 | > 20 | > 20 | > 20 | 92.2 |  | ≥ 95
CN(C)C(=O)c1cc(C(=O)Nc2cc3n(n2)CCN3c2ccc3c(c2)CCN(C)C3=O)cs1 [Compound I-432] |  |  |  | > 20 | > 20 | > 20 | > 20 | > 20 |  |  | ≥ 95
